These are literature values, as cited in patent US9012467B2, “Compositions for intratumoral administration” (Covidien LP, priority 2009, dated 2015).

The data set deals with mice. The note with it: acute toxicity.

With `COC(=O)C1=CO[C@@H](O)[C@@H]2C(CO)=CC[C@H]12` [Genipin, genipin], the LD50 i.v. is 382 mg/k.
